Where only a bound is given, the exact number is not on record here.

This assay deals with ATF4 luciferase reporter in HEK293T cells. As to the kind of experiment: ATF4-Luc assay, HEK293T cells carrying the ATF4 luciferase reporter (in vitro model of VWMD). It counts as cell-based. To be noted: Homo sapiens, HEK-293T; HEK293T ATF4 luciferase reporter cells, 1 μg/mL tunicamycin, 7 hours; read-out: ATF4-Luc EC50. How it is done:
In order to test exemplary compounds of the invention in a cellular context, a stable VWMD cell line was first constructed. The ATF4 reporter was prepared by fusing the human full-length ATF4 5′-UTR (NCBI Accession No. BC022088.2) in front of the firefly luciferase (FLuc) coding sequence lacking the initiator methionine as described in Sidrauski et al (eLife 2013). The construct was used to produce recombinant retroviruses using standard methods and the resulting viral supernatant was used to transduce HEK293T cells, which were then subsequently selected with puromycin to generate a stable cell line.
HEK293T cells carrying the ATF4 luciferase reporter were plated on polylysine coated 384-well plates (Greiner Bio-one) at 30,000 cells per well. Cells were treated the next day with 1 μg/mL tunicamycin and 200 nM of a compound of Formula (I) for 7 hours. Luminescence was measured using One Glo (Promega) as specified by the manufacturer. Cells were maintained in DMEM with L-glutamine supplemented with 10% heat-inactivated FBS (Gibco) and Antibiotic-Antimycotic solution (Gibco).
For orientation: In a reporter assay the amount or activity of a reporter protein is the signal.
Consider `O=C(COc1ccc(Cl)c(F)c1)NC12CCC(NC(=O)COc3ccc(C(F)(F)F)nc3)(CC1)[C@H](O)C2` (single isomer, unassigned) [Compound 302], for which the EC50 is below 0.01 µM.
As to `O=C(COc1ccc(Cl)c(F)c1)NC12CCC(NC(=O)COc3ccnc(C(F)(F)F)c3)(CC1)[C@@H](O)C2` (single isomer, unassigned) [Compound 318], the EC50 fell in the range of 0.01 to 0.05 µM.
Next, `O=C(COc1ccc(Cl)c(F)c1)NC12CCC(NC(=O)COc3ccc(C(F)(F)F)nc3)(CC1)[C@@H](F)C2` (single isomer, unassigned) [Compound 372]: 0.05 to 0.25 µM; `O=C(CCn1ncc(Cl)cc1=O)NC12CC(NC(=O)COc3ccc(Cl)c(F)c3)(C1)C2` [Compound 104, N-{3-[2-(4-chloro-3-fluorophenoxy)acetamido]bicyclo[1.1.1]pentan-1-yl}-3-(4-chloro-6-oxopyridazin-1(6H)-yl)propanamide]: 0.25 to 500 µM.
The figure for `O=C(COCCc1ccc(Cl)cc1)NC12CC(NC(=O)COc3ccc(Cl)c(F)c3)(C1)C2` [Compound 135, 2-(4-chloro-3-fluorophenoxy)-N-(3-{2-[2-(4-chlorophenyl)ethoxy]acetamido}-bicyclo[1.1.1]pentan-1-yl)acetamide] is 0.25 to 500 µM; for `Cc1cccc(CCOCC(=O)NC23CC(NC(=O)COc4ccc(Cl)c(F)c4)(C2)C3)c1` [Compound 136, 2-(4-chloro-3-fluorophenoxy)-N-(3-{2-[2-(3-methylphenyl)ethoxy]acetamido}-bicyclo[1.1.1]pentan-1-yl)acetamide] it is 0.25 to 500 µM; for `N#Cc1cccc(COCC(=O)NC23CC(NC(=O)COc4ccc(Cl)c(F)c4)(C2)C3)c1` [Compound 138, 2-(4-chloro-3-fluorophenoxy)-N-(3-{2-[(3-cyanophenyl)methoxy]acetamido}-bicyclo[1.1.1]pentan-1-yl)acetamide] it is 0.25 to 500 µM.
The figure for `N#Cc1ccc(COCC(=O)NC23CC(NC(=O)COc4ccc(Cl)c(F)c4)(C2)C3)cc1` [Compound 139, 2-(4-chloro-3-fluorophenoxy)-N-(3-{2-[(4-cyanophenyl)methoxy]acetamido}-bicyclo[1.1.1]pentan-1-yl)acetamide] is 0.25 to 500 µM; for `Cc1ccc(COCC(=O)NC23CC(NC(=O)COc4ccc(Cl)c(F)c4)(C2)C3)cc1` [Compound 144, 2-(4-chloro-3-fluorophenoxy)-N-(3-{2-[(4-methylphenyl)methoxy]acetamido}-bicyclo[1.1.1]pentan-1-yl)acetamide] it is 0.25 to 500 µM; for `Cc1ccc(CCOCC(=O)NC23CC(NC(=O)COc4ccc(Cl)c(Cl)c4)(C2)C3)cc1` [Compound 154, 2-(3,4-dichlorophenoxy)-N-(3-{2-[2-(4-methylphenyl)ethoxy]acetamido}-bicyclo[1.1.1]pentan-1-yl)acetamide] it is 0.25 to 500 µM.
Regarding `O=C(CCOCc1cccc(Cl)c1)NC12CC(NC(=O)COc3ccc(Cl)c(F)c3)(C1)C2` [Compound 163, N-{3-[2-(4-chloro-3-fluorophenoxy)acetamido]bicyclo[1.1.1]pentan-1-yl}-3-[(3-chlorophenyl)methoxy]propanamide], the EC50 fell in the range of 0.25 to 500 µM.
Next, `O=C(COc1ccc(Cl)c(F)c1)NC12CC(NC(=O)OCCCc3cccc(Cl)c3)(C1)C2` [Compound 166, 3-(3-chlorophenyl)propyl {3-[2-(4-chloro-3-fluorophenoxy)acetamido]-bicyclo[1.1.1]pentan-1-yl}carbamate]: 0.25 to 500 µM; `O=C(CCOc1cccc(Cl)c1)NC12CC(NC(=O)COc3ccc(Cl)c(Cl)c3)(C1)C2` [Compound 169, 3-(3-chlorophenoxy)-N-{3-[2-(3,4-dichlorophenoxy)acetamido]bicyclo-[1.1.1]pentan-1-yl}propanamide]: 0.25 to 500 µM.
The figure for `O=C(COc1ccc(Cl)c(Cl)c1)NC12CC(NC(=O)OCCCc3cccc(Cl)c3)(C1)C2` [Compound 174, 3-(3-chlorophenyl)propyl {3-[2-(3,4-dichlorophenoxy)acetamido]-bicyclo[1.1.1]pentan-1-yl}carbamate] is 0.25 to 500 µM.
The figure for `Cc1cc(Cl)ncc1OCC(=O)NC12CC(NC(=O)COc3ccc(Cl)c(F)c3)(C1)C2` [Compound 243, 2-(4-chloro-3-fluorophenoxy)-N-(3-{2-[(6-chloro-4-methylpyridin-3-yl)oxy]acetamido}bicyclo[1.1.1]pentan-1-yl)acetamide] is 0.25 to 500 µM.
Turning to `Cc1nc(F)ccc1OCC(=O)NC12CC(NC(=O)COc3ccc(Cl)c(F)c3)(C1)C2` [Compound 249, 2-(4-chloro-3-fluorophenoxy)-N-(3-{2-[(6-fluoro-2-methylpyridin-3-yl)oxy]acetamido}bicyclo[1.1.1]pentan-1-yl)acetamide], the EC50 is 0.25 to 500 µM.
The figure for `O=C(COc1ccc(Cl)c(F)c1)NC12CC(NC(=O)COc3cnc4cc[nH]c4c3)(C1)C2` [Compound 254, 2-(4-chloro-3-fluorophenoxy)-N-(3-{2-[(1H-pyrrolo[3,2-b]pyridin-6-yl)oxy]acetamido}bicyclo[1.1.1]pentan-1-yl)acetamide] is 0.25 to 500 µM.
With `NCc1ccc(OCC(=O)NC23CC(NC(=O)COc4ccc(Cl)c(F)c4)(C2)C3)cn1` [Compound 259, 2-{[6-(aminomethyl)pyridin-3-yl]oxy}-N-{3-[2-(4-chloro-3-fluorophenoxy)acetamido]bicyclo[1.1.1]pentan-1-yl}acetamide], the EC50 was 0.25 to 500 µM.
The figure for `N#Cc1cc(OCC(=O)NC23CC(NC(=O)COc4ccc5c(c4)OC(F)(F)O5)(C2)C3)ccn1` [Compound 270, 2-[(2-cyanopyridin-4-yl)oxy]-N-(3-{2-[(2,2-difluoro-2H-1,3-benzodioxol-5-yl)oxy]acetamido}bicyclo[1.1.1]pentan-1-yl)acetamide] is 0.25 to 500 µM; for `N#Cc1cc(OCC(=O)NC23CC(NC(=O)COc4ccc(Cl)c(F)c4)(C2)C3)ccn1` [Compound 277, 2-(4-chloro-3-fluorophenoxy)-N-(3-{2-[(2-cyanopyridin-4-yl)oxy]acetamido}bicyclo[1.1.1]pentan-1-yl)acetamide] it is 0.25 to 500 µM.
With `O=C(COCc1ccc(OC(F)F)nc1)NC12CC(NC(=O)COc3ccc(Cl)c(F)c3)(C1)C2` [Compound 279, 2-(4-chloro-3-fluorophenoxy)-N-[3-(2-{[6-(difluoromethoxy)pyridin-3-yl]methoxy}acetamido)bicyclo[1.1.1]pentan-1-yl]acetamide], the EC50 lay in the range of 0.25 to 500 µM.
The figure for `O=C(COc1ccc(Cl)c(F)c1)NC12CC(NCC(=O)c3ccc(Cl)c(F)c3)(C1)C2` [Compound 291, 2-(4-chloro-3-fluorophenoxy)-N-(3-{[2-(4-chloro-3-fluorophenyl)-2-oxoethyl]amino}bicyclo[1.1.1]pentan-1-yl)acetamide] is 0.25 to 500 µM; for `O=C(COc1ccc(Cl)c(F)c1)NC12CC(NC(=O)CC(=O)c3ccc(Cl)cc3)(C1)C2` [Compound 293, N-{3-[2-(4-chloro-3-fluorophenoxy)acetamido]bicyclo[1.1.1]pentan-1-yl}-3-(4-chlorophenyl)-3-oxopropanamide] it is 0.25 to 500 µM.
For `O=C(COc1ccc(Cl)c(F)c1)NC12CCC(NC(=O)COc3ccnn(CC(F)(F)F)c3=O)(CC1)C(O)C2` (stereo not drawn) [Compound 333, 2-(4-chloro-3-fluorophenoxy)-N-[3-hydroxy-4-(2-{[3-oxo-2-(2,2,2-trifluoroethyl)-2,3-dihydropyridazin-4-yl]oxy}acetamido)bicyclo[2.2.2]octan-1-yl]acetamide], the EC50 fell in the range of 0.25 to 500 µM.

A word on the EC50: it is the midpoint of the concentration-response curve.

For the origin of these results see patent US20250122188A1, “MODULATORS OF THE INTEGRATED STRESS PATHWAY” (Calico Life Sciences LLC, priority 2016, published 2025).
